# US9326978B2, “A3 adenosine receptor allosteric modulators” (The United States of America, Represented by the Secretary, …, priority 2006, dated 2016)
# Entries after “also recorded” stand apart in the source; their conditions may differ. Like-named read-outs stand apart in the source and are kept apart here.
# Tests used:
# [1] = test system: adjuvant induced arthritis; assay: Adjuvant induced arthritis (AIA) model; assay type: in vivo; conditions: AIA rats, orally twice daily 100 μg/kg from onset of disease; vs control
# Procedure: Adjuvant induced arthritis model (model for rheumatoid arthritis (RA)) was established in rats by immunizing the animals with an emulsion contacting Mycobacterium tuberculosis in Freund's adjuvant (Animal Models for Autoimmune and Inflammatory disease:Adjuvant Arthritis in the Rat. Current Protocols in Immunology, Supplement 19, page 15.4.2.). Treatment with imidazoquinoline derivative 45 was initiated upon onset of disease. The imidazoquinoline derivative 45 was administered orally twice daily at a dose of 100 μg/kg.
# Evaluation of disease development was carried out daily, starting upon onset of disease until the end of the study. Intensity of arthritis was scored by grading each paw from 0-4 on erythema, swelling and deformity of the joint, every day: 0=no erythema or swelling; 1=slight erythema or swelling of one of the toes or fingers; 2=erythema and swelling of more than one toe or finger; 3=erythema and swelling of the ankle or wrist; 4=complete erythema and swelling of toes or fingers and ankles or wrist, and inability to bend the ankle or wrist. All scores of the four legs from each rat are added to give up to a maximum arthritic score of 16.
# [2] = target: human A3ARs (Homo sapiens (Human), UniProt P0DMS8); assay: Cyclic AMP accumulation assay, efficacy at hA3AR; assay type: cell-based; conditions: compared to maximal effect by 2-Cl-IB-MECA alone (control = 100%)
# Procedure: Intracellular cyclic AMP levels were measured with a competitive protein binding method (Nordstedt and Fredholm, 1990). CHO cells that expressed recombinant human A3ARs were harvested by trypsinization. After centrifugation and resuspension in medium, cells were plated in 24-well plates in 0.5 ml medium. After 24 hr, the medium was removed and cells were washed three times with 1 ml DMEM, containing 50 mM HEPES, pH 7.4. Cells were then treated with agonists and/or test compounds in the presence of rolipram (10 μM) and adenosine deaminase (3 units/ml). After 45 min forskolin (10 μM) was added to the medium, and incubation was continued an additional 15 min. The reaction was terminated by removing the supernatant, and cells were lysed upon the addition of 200 μL of 0.1 M ice-cold HCl. The cell lysate was resuspended and stored at −20° C. For determination of cyclic AMP production, protein kinase A (PKA) was incubated with [^3H]cyclic AMP (2 nM) in K2HPO4/EDTA buffer (K2HPO4, 150 mM; EDTA, 10 mM), 20 μL of the cell lysate, and 30 μL 0.1 M HCl or 50 μL of cyclic AMP solution (0-16 pmol/200 μL for standard curve). Bound radioactivity was separated by rapid filtration through Whatman GF/C filters and washed once with cold buffer. Bound radioactivity was measured by liquid scintillation spectrometry.
# [3] = target: human A3AR (Homo sapiens (Human), UniProt P0DMS8); assay: Competitive binding assay to the human A3AR ([125I]I-AB-MECA)
# Procedure: (§1) CHO (Chinese hamster ovary) cells expressing the recombinant human ARs (HEK-293 cells were used for the human A2AAR) were cultured in DMEM and F12 (1:1) supplemented with 10% fetal bovine serum, 100 units/ml penicillin, […] streptomycin and 2 μmol/ml glutamine. Cells were harvested by trypsinization. After homogenization and suspension, cells were centrifuged at 500 g for 10 min, and the pellet was re-suspended in 50 mM Tris.HCl buffer (pH 7.4) containing 10 mM MgCl2. The suspension was homogenized with an electric homogenizer for 10 sec, and was then re-centrifuged at 20,000 g for 20 min at 4° C. The resultant pellets were resuspended in buffer in the presence of 3 Units/mL adenosine deaminase, and the suspension was stored at −80° C. until the binding experiments. The protein concentration was measured using the Bradford assay.
# Each tube in the competitive binding assay contained 100 μl membrane suspension (20 μg protein), 50 μl [^125I]-AB-MECA (0.5 nM), and 50 μl of increasing concentrations of the test ligands in Tris.HCl buffer (50 mM, pH 8.0) containing 10 mM MgCl2, 1 mM EDTA. Nonspecific binding was determined using 10 μM of 5′-N-ethylcarboxamidoadenosine in the buffer. The mixtures were incubated at 25° C. for 60 min. Binding reactions were terminated by filtration through Whatman GF/B filters under reduced pressure using a MT-24 cell harvester (Brandell, Gaithersburgh, Md., USA). Filters were washed three times with 9 mL ice-cold buffer. Radioactivity was determined in a Beckman 5500B γ-counter.
# [4] = target: human A1AR (Homo sapiens (Human), UniProt P30542); assay: Binding assay to the human A1AR ([3H]R-PIA); conditions: 1 h, 10 μM, CHO cells, read-out: hA1AR % displ. at 10 μM
# Procedure: as §1
# (§2) For binding to the human A1AR, [^3H]R-PIA (2 nM) was incubated with membranes (40 μg/tube) from CHO cells stably expressing the human A1AR at 25° C. for 60 min in 50 mM Tris.HCl buffer (pH 7.4; MgCl2, 10 mM) in a total assay volume of 200 μL. Nonspecific binding was determined using 10 μM of N^6-cyclopentyladenosine. For human A2A AR binding, membranes (20 μg/tube) from HEK-293 cells stably expressing the human A2A AR were incubated with 15 nM [^3H]CGS21680 at 25° C. for 60 min in 200 μL of 50 mM Tris.HCl, pH 7.4, containing 10 mM MgCl2. N-5′-ethyluronamidoadenosine (10 μM) was used to define nonspecific binding. Reaction was terminated by filtration with GF/B filters.
# [5] = target: human A2A AR (Homo sapiens (Human), UniProt P29274); assay: Binding assay to the human A2A AR ([3H]CGS21680); conditions: 10 μM
# Procedure: as §1, §2
# [6] = test system: myeloid system; assay: Effect on the myeloid system of naïve mice (differential blood count); assay type: in vivo; conditions: naïve ICR mice, orally 100 μg/kg thrice daily for two days; blood 24 and 48 hours after last administration; vs control
# Procedure: A stock solution of imidazoquinoline derivative 45 was prepared by dissolving the same in DMSO. Further dilutions for treatment were performed in PBS. As a control, an equivalent amount of DMSO in PBS was used.
# To test the effect of imidazoquinoline derivative 45 on the myeloid system, the compound was orally administered at a dose of 100 μg/kg, thrice daily to ICR mice, for two consecutive days. Blood samples were withdrawn 24 and 48 hours after the last drug administration. A differential blood count was performed.
# Sequence of human A3AR (P0DMS8 whole entry): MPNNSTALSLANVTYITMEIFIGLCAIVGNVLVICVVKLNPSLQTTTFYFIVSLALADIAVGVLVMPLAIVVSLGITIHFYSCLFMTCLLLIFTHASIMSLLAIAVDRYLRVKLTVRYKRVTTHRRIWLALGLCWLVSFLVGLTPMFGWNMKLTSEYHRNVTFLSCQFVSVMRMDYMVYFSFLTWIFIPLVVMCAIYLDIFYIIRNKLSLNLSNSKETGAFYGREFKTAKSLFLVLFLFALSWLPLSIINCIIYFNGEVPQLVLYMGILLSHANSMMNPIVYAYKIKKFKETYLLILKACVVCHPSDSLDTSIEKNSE
# Sequence of human A1AR (P30542 whole entry): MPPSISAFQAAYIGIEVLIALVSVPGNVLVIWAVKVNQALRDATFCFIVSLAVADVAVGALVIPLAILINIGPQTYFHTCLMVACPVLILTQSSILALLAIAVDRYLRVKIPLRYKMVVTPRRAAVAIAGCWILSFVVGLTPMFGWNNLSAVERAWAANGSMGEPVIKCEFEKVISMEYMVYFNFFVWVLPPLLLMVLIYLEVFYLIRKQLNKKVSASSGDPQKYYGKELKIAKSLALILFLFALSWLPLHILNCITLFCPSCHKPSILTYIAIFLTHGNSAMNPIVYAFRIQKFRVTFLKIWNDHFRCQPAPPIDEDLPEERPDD
# Sequence of human A2A AR (P29274 whole entry): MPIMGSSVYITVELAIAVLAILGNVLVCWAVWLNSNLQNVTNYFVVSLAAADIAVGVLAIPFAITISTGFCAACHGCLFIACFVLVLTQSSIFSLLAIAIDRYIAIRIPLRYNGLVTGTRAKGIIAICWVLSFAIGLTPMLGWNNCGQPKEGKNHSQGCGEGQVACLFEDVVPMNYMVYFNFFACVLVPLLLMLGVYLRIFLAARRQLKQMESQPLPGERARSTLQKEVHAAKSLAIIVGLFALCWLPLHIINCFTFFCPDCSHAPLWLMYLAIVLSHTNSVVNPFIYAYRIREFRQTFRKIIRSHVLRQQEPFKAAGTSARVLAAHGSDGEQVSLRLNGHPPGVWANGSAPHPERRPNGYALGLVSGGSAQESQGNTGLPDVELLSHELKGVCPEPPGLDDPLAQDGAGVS
# Sequence of human A3ARs (P0DMS8 whole entry): as the sequence (P0DMS8 whole entry) above
smiles,measurement,setting,value
"Clc1ccc(Nc2nc3ccccc3c3[nH]c(C4CCCCC4)nc23)cc1Cl [Compound 45, N-(3,4-Dichloro-phenyl)-2-cyclohexyl-1H-imidazo[4,5-c]quinolin-4-amine]","clinical score (arthritic score, max 16)",[1],reduction in clinical score
same,% Increase of efficacy at hA3AR at 10 μM,[2],145 ± 7%
same,hA3AR % displ. at 10 μM,"[3]; 10 μM, [125I]I-AB-MECA, CHO cells, Table 3",45%
same,inhibition at 10 µM,"[3]; 1 h, 10 μM, [125I]I-AB-MECA (0.5 nM), CHO cells, Table 2, read-out: hA3AR % displ. at 10 μM",45%
same,affinity to orthosteric versus allosteric binding sites (selective affinity),"[3]; orthosteric sites of A1, A2A, A2B, A3 receptors vs allosteric site of A3 adenosine receptor",selective affinity; also recorded: best separation between orthosteric and allosteric recognition
same,inhibition at 10 µM,"[4]; [3H]R-PIA, Table 3",< 10%
same,inhibition at 10 µM,"[4]; [3H]R-PIA, Table 4",< 10%
same,inhibition at 10 µM,"[4]; [3H]R-PIA (2.0 nM), Table 2",-2%
same,hA2AAR % displ. at 10 μM,"[5]; [3H]CGS 21680 (15 nM), HEK293 cells, Table 2",−1%
same,hA2AAR % displ. at 10 μM,"[5]; [3H]CGS 21680, Table 3",<10%
same,hA2AAR % displ. at 10 μM,"[5]; [3H]CGS 21680, Table 4",<10%
same,number of neutrophils,[6],increased
same,number of white blood cells (WBC),[6],increased
